Our source for the pIC50 and IC50 values is ChEMBL document CHEMBL3045701, “Comprehensive structureactivity relationship analysis of substituted 5-(biphenyl-4-ylmethyl) pyrazoles derivatives as AT1 selective angiotensin II receptor antagonists: 2D and kNNMFA QSAR approach” (Med Chem Res, 2013).

The assay addresses T1, Angiotensin II receptor (AT-1) type-1 (Rattus norvegicus, UniProt P29089+P25095).
T1 sequence (P29089 whole entry): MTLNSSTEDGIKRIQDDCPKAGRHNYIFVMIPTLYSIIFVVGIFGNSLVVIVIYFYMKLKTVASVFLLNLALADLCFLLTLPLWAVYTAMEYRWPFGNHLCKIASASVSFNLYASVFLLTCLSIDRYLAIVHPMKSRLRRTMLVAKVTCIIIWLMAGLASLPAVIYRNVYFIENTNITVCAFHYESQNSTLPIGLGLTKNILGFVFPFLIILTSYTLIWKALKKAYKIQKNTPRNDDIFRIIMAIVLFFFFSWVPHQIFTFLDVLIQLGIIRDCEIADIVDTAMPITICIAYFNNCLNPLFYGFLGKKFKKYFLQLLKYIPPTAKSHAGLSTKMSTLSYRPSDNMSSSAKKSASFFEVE
T1 sequence (P25095 whole entry): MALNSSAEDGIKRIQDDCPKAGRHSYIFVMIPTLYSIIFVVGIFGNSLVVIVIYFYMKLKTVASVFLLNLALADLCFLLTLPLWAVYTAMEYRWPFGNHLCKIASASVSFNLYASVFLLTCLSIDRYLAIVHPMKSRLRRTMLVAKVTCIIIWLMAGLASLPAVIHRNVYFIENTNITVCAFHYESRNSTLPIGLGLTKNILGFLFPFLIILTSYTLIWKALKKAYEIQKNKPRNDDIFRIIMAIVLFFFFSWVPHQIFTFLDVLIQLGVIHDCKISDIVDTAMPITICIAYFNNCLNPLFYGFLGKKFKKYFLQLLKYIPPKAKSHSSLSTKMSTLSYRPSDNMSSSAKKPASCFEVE
Description: Antagonist activity at AT1 receptor in Rattus norvegicus (rat) liver.

Broadly, the pIC50 is the negative decadic logarithm of the IC50, by convention in mol/L. Read a low pIC50 as a high IC50. `CCCCn1nc(C)c(C(=O)O)c1Cc1ccc(-c2ccccc2-c2nn[nH]n2)cc1` showed a pIC50 of 8.567. A word on the IC50: it is the concentration needed to halve the response being measured. As for `CCCn1nc(C(C)C)c(C(=O)O)c1Cc1ccc(-c2ccccc2NS(=O)(=O)C(F)(F)F)cc1`, the IC50 turned out to be 74 nM and the pIC50 was found to be 7.13. Taken in the same sequence, the figures for `CCCCn1nc(C)c(C(=O)O)c1Cc1ccc(-c2ccccc2S(=O)(=O)Nc2ccccc2)cc1` were 12 nM and 7.92. `CCCCOC(=O)NS(=O)(=O)c1ccccc1-c1ccc(Cc2c(C(=O)O)cnn2CCCC)cc1` returned an IC50 of 13 nM and a pIC50 of 7.522. As to `CCCn1nc(C2CC2)c(C(=O)O)c1Cc1ccc(-c2ccccc2S(=O)(=O)Nc2ccccc2)cc1`, the IC50 came out at 18 nM and the pIC50 is given as 7.744. In the case of `CCCn1nc(C2CC2)c(C(N)=O)c1Cc1ccc(-c2ccccc2S(=O)(=O)Nc2ccccc2)cc1`, the IC50 is 7.4 nM and the pIC50 was determined as 8.13. `CCCn1nc(C(C)C)c(C(=O)O)c1Cc1ccc(-c2ccccc2C(=O)O)cc1` yielded an IC50 of 130 nM and a negative logarithm of the IC50 (pIC50) of 6.886. Consider `CCCCc1nn(CCC)c(Cc2ccc(-c3ccccc3-c3nnn[nH]3)cc2)c1C(=O)O`, for which the IC50 stood at 3 nM and the pIC50 was 8.522. `Cc1nn(-c2ccccc2)c(Cc2ccc(-c3ccccc3-c3nn[nH]n3)cc2)c1C(=O)O` had a pIC50 of 7.102.
